Assay results from US20240002398A1, “COMPLEX, AND USE THEREOF” (RIKEN, priority 2020, published 2024).
Blank lines part the entries; values can stand above or below the compound they belong to.

Key:
[1] = system: HeLa S3; test: ATP assay (cytotoxicity assay), DOX-ABC and DOX; conditions: HeLa S3, 0.05-50 μM, 48 hours at 37° C., FIG. 16
Method: (§4) Three cell lines (MCF10A, A549, and HeLa S3) were seeded on a 96-well plate (2×10^4 cells/well) and left to attach for 24 hours at 37° C. Each of the cells was then used for two different conditions as follows:
(§5) (Condition 1) The cells were treated with 100 μL of DOX-ABC (compound 7) solutions [0.05 μM, 0.1 μM, 0.5 μM, 1 μM, 5 μM, 10 μM, 50 μM in the culture medium (1% DMSO)] and incubated for 48 hours at 37° C. under 5% of CO2.
(§6) (Condition 2) Incubation was carried out in a manner similar to that of condition 1 with use of doxorubicin (DOX) solutions.
(§7) After the incubation, 100 μL of ATP lite 1 step reagent was added to the cells, and the fluorescence intensity was measured using a spectrofluorometer (SpectraMax iD3, manufactured by Molecular Devices).

[2] = system: A549; test: ATP assay (cytotoxicity assay), DOX-ABC and DOX; conditions: A549, 0.05-50 μM, 48 hours at 37° C., FIG. 16
Method: as §4, §5, §6, §7

[3] = system: A549 xenograft tumors; test: A549 tumor bearing mice xenograft model, intratumoral administration (Example 8); conditions: for tumor growth (tumor size): intratumoral 10 μL, 4 times on days 0, 4, 7 and 11, FIGS. 17 and 18; for survival rate: intratumoral, at and after the fourth administration, Kaplan Meier, FIG. 19
Method: The prepared mice were randomized, divided into three groups, and treated with the prodrugs and controls. Group 1 was intratumorally injected with 10 μL of compound 9 produced in Production Example 5 as a control (n=10). Group 2 was intratumorally injected with 10 μL of doxorubicin (n=10).
Administrations were conducted 4 times in total on days 0, 4, 7, and 11 with the same doses. The tumor volumes of the mice were recorded every day based on an equation: V=W^2×L/2, where W and L represented the minor length and major length of the tumor, respectively. When the tumor reached 2,000 mm^3, the mice were sacrificed, and the survival rates were calculated using the Kaplan Meier method.

[4] = system: MCF10A; test: ATP assay (cytotoxicity assay), DOX-ABC and DOX; conditions: 0.05-50 μM, 48 hours at 37° C., FIG. 16
Method: as §4, §5, §6, §7

[5] = system: A549 xenograft tumors; test: A549 tumor bearing mice xenograft model, intratumoral administration (Example 9); type: in vivo; conditions: intratumoral 10 μL, 4 times on days 0, 4, 7 and 11; FIG. 20
[6] = Fluorescence spectra in water (0.2% DMSO); type: physicochemical; conditions: 2 μM in water (0.2% DMSO), FIG. 1
Text: The results are shown in FIG. 1 (dashed line: compound 7, solid line: control compound).

[7] = Fluorescence release, HPLC analysis of mixture with acrolein; type: physicochemical; conditions: 20 μM in DMSO, acrolein 1.0 eq, FIG. 9
Method: (§1) To a solution of coumarin-ABC (compound 7) (2×10^−5 mmol, 1.0 eq) in DMSO (1 mL, [compound 7]=20 μM) was added glutathione (GSH) (2×10^−5 mmol, 1.0 eq) or acrolein (2×10^−5 mmol, 1.0 eq). The reaction liquid was stirred and the reaction mixture was subjected to HPLC analysis at different time intervals (30 minutes, 1 hour, 2 hours, 4 hours, and 12 hours). Conditions of reversed-phase HPLC were as follows: Column, Cosmosil 5C18-AR300 (manufactured by Nacalai Tesque, Inc.) 4.6×250 mm; Mobile phase A, 0.1% TFA in H2O; Mobile phase B, 0.1% TFA in CH3CN; Gradient elution, 0-4 min at 65% B, 4-14 min at 65-95% B, 14-20 min at 95% B; Flow rate at 1 mL/min; Fluorescence detection at 360/450 nm; Amount per injection 6 μL. Results are shown in FIG. 8 (GSH) and FIG. 9 (acrolein).

[8] = system: HeLa S3 (human cervical cancer cells); test: Fluorescence release, cell-based assay, time-dependent; conditions: HeLa S3, 2 μM or 20 μM, real-time 30 minutes, FIGS. 6 and 7
Method: (§2) Fluorescence intensity was normalized for each cell line by the number of 10,000 cells. Results are shown in FIG. 6 (2 μM) and FIG. 7 (20 μM).

[9] = system: MCF10A (normal human mammary cells); test: as above; conditions: 2 μM or 20 μM, real-time 30 minutes, FIGS. 6 and 7
Method: as §2

[10] = system: A549 (human lung adenocarcinoma cells); test: as above; conditions: A549, 2 μM or 20 μM, real-time 30 minutes, FIGS. 6 and 7
Method: as §2

[11] = system: HeLa S3 (human cervical cancer cells); test: Fluorescence release, cell-based assay, concentration-dependent; conditions: FIG. 5
Text: (§3) Fluorescence intensity was normalized for each cell line by the number of 10,000 cells.

[12] = system: MCF10A (normal human mammary cells); test: as above; conditions: 2-20 μM, FIG. 3
Text: as §3

[13] = system: A549 (human lung adenocarcinoma cells); test: as above; conditions: FIG. 4
Text: as §3

[14] = Fluorescence release, HPLC analysis of mixture with glutathione; type: physicochemical; conditions: 20 μM in DMSO, GSH 1.0 eq, FIG. 8
Method: as §1

[15] = system: A549 xenograft tumors; test: A549 tumor bearing mice xenograft model, intratumoral administration (Example 6); conditions: 12 times in consecutive days, mitomycin C 1.8 mg/kg, MMC-ABC 3.1 mg/kg, FIGS. 13 and 15
Method: For all intratumoral injections and tumor measurements, mice were anesthetized with 2% isoflurane in oxygen at a 2.5-3.0 L/min flow rate.
A549 cells were obtained from stock lines kept in liquid nitrogen. These cells were cultured in Dulbeccos's modified eagle's medium (DMEM) (manufactured by FUJIFILM Wako Pure Chemical Corporation) supplemented with 10% fetal bovine serum (FBS) (manufactured by BioWest) and 1% penicillin-streptomycin (manufactured by Gibco). The cells were then incubated at 37° C. in a 5% CO2 humidified atmosphere.
A549 xenograft tumors were established in 6-week-old female nude mice BALB/cAJc1-nu/nu by subcutaneous injection of a suspension of 2.5-6.0×10^6 cells in 100 μL of cold 50% matrigel in unnourished DMEM into the right and left shoulders, and tumor growth was monitored. The mice were kept in controlled temperature, salinity, and aeration room with sufficient food and water for 12 hours day and 12 hours night. […]
The administrations were repeated 12 times in consecutive days with the same doses. The tumor volume and body weight of the mice were recorded every day based on an equation: V=W^2×L/2, where W and L represented the minor length and major length of the tumor, respectively. When the tumor reached 2,000 mm^3, the mice were sacrificed, and the survival rates were calculated using the Kaplan Meier method. […]

Structure (SMILES): COc1cccc2c1C(=O)c1c(O)c3c(c(O)c1C2=O)C[C@@](O)(C(=O)CO)C[C@@H]3O[C@H]1C[C@H](NC(=O)OCc2cc(C(C)C)c(N=[N+]=[N-])c(C(C)C)c2)[C@H](O)[C@H](C)O1 [DOX-ABC]
cytotoxicity (cell viability) [1]: released free DOX specifically in cancer cells
cytotoxicity (cell viability) [2]: released free DOX specifically in cancer cells
tumor growth (tumor size) [3]: effective with respect to the tumor growth
survival rate [3]: 100%
cytotoxicity (cell viability) [4]: released free DOX specifically in cancer cells

Structure (SMILES): COc1ccc(CC(NC(=O)OCc2cc(C(C)C)c(N=[N+]=[N-])c(C(C)C)c2)C(=O)NC2C(O)[C@H](n3cnc4c(N(C)C)ncnc43)O[C@@H]2CO)cc1 (some centres unmarked) [PUR-ABC]
tumor growth [5]: effective with respect to the tumor growth

Structure (SMILES): Cc1cc(C(C)C)c(N=[N+]=[N-])c(C(C)C)c1 [compound 9, 2-azido-1,3-diisopropyl-5-methylbenzene]
tumor growth (tumor size) [3]: larger tumor size

fluorescence emission [6]: did not emit fluorescence
reaction with acrolein [7]: rapidly reacted with each other
reaction with glutathione (GSH) [14]: did not react with each other
state of the compound in the mixture with GSH ([14]; left for 12 hours): did not change
Structure (SMILES): Cc1cc(=O)oc2cc(NC(=O)OCc3cc(C(C)C)c(N=[N+]=[N-])c(C(C)C)c3)ccc12 [coumarin-ABC]
release of fluorescence [8]: notably observed depending on the time
release of fluorescence [9]: only slightly observed
release of fluorescence [10]: notably observed depending on the time
release of fluorescence ([11]; HeLa S3, 2-20 μM, 60 minutes at room temperature, no NAc-Cys (conditions 1 and 3)): notably observed
release of fluorescence ([11]; HeLa S3, pre-treated with 1 mM N-acetyl cysteine 2 hours (condition 2), 2-20 μM, 60 minutes): low
release of fluorescence ([12]; 60 minutes at room temperature, no NAc-Cys (conditions 1 and 3)): hardly observed
release of fluorescence ([12]; pre-treated with 1 mM N-acetyl cysteine 2 hours (condition 2), 60 minutes): hardly observed
release of fluorescence ([13]; A549, 2-20 μM, 60 minutes at room temperature, no NAc-Cys (conditions 1 and 3)): notably observed
release of fluorescence ([13]; A549, pre-treated with 1 mM N-acetyl cysteine 2 hours (condition 2), 2-20 μM, 60 minutes): low

Structure (SMILES): COc1cccc2c1C(=O)c1c(O)c3c(c(O)c1C2=O)C[C@@](O)(C(=O)CO)C[C@@H]3O[C@H]1C[C@H](N)[C@H](O)[C@H](C)O1 [doxorubicin, reference compound]
cytotoxicity (cell viability) [1]: nonspecifically exhibited cytotoxicity toward normal cells and cancer cells
cytotoxicity (cell viability) [2]: nonspecifically exhibited cytotoxicity toward normal cells and cancer cells
tumor growth (tumor size) [3]: effective with respect to the tumor growth
survival rate [3]: suddenly decreased
cytotoxicity (cell viability) [4]: nonspecifically exhibited cytotoxicity toward normal cells and cancer cells

Structure (SMILES): CO[C@@]12[C@H](COC(N)=O)C3=C(C(=O)C(C)=C(N)C3=O)N1C[C@@H]1N[C@@H]12 [mitomycin C]
side effect [15]: inflammation on the whole body
